Measurements taken from PubChem BioAssay AID1918986 (Small Molecule Screening Facility, UW Madison, 2023).
Activity calls are given as the source filed them.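 How the source made its calls: active means full-shape inhibition curve with partial efficacy, or partial curve whose IC50 upper confidence bound lies within tested doses; inactive means the rest.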

Target: Klebsiella pneumoniae PriA-SSB C-terminal tail interaction
Test: K. pneumoniae PriA-SSBct interaction blockers – biochemical, AlphaScreen, virtual screen prioritized set, dose response (AID 1918986)
Details: PriA binding to biotinylated SSBct peptide

**Q.** How did the outcome turn out when `Clc1cccnc1NN=Cc1ccccn1` was run?
**A.** inactive

**Q.** How did the outcome turn out when `O=C(Nc1nc(-c2ccccn2)cs1)C1(C2CCCCO2)CCCO1` (stereo not drawn) was run?
**A.** inactive

**Q.** `CO[C@H](C)[C@@H](C)Nc1nc(-c2ccccn2)nc2c1CCC2` was tested. Which IC50 did it give?
**A.** 13.9 µM

**Q.** For `CCOC(=O)c1[nH]c(C)c(C(=O)CSc2cccc3cccnc23)c1C`, which outcome is on record?
**A.** inactive

**Q.** How did the IC50 turn out when `Cc1ccc(-c2nc(SCC(=O)NCc3ccnc(-c4ccccn4)n3)n[nH]2)cc1` was run?
**A.** 37.8 µM

**Q.** `Nc1ncc(-c2ccccn2)cn1` was tested. Which outcome did it give?
**A.** inactive

**Q.** `O=[N+]([O-])c1ncn(Cc2cccc3cccnc23)n1` was tested. Which outcome did it give?
**A.** inactive

**Q.** `CCCN1CCCc2cc(C(C)C)ccc21` was tested. Which outcome did it give?
**A.** inactive

**Q.** How did the IC50 turn out when `C(=NNc1ncnc2nc[nH]c12)c1ccccn1` was run?
**A.** 1.29 µM

**Q.** For `Fc1cccc2[nH]c(-c3ccccn3)nc12`, which outcome is on record?
**A.** inactive

**Q.** Which IC50 does the source give for `CC1CCC(=NNc2ccccc2[N+](=O)[O-])CC1` (stereo not drawn) here?
**A.** 3.64 µM

**Q.** With `CC1Sc2ccc(C(=O)Nc3nc(-c4ccccn4)cs3)cc2NC1=O` (stereo not drawn) as the compound, how does the IC50 read?
**A.** 7.99 µM

**Q.** `O=c1[nH]c(NN=Cc2ccccn2)nc2ccccc12` was tested. Which outcome did it give?
**A.** inactive

**Q.** With `CC(C)(C)c1ncc(-c2cccc3cccnc23)o1` as the compound, how does the outcome read?
**A.** inactive

**Q.** Which IC50 does the source give for `c1ccc(-c2nc3c(c(N4CCCC4)n2)CCC3)nc1` here?
**A.** 17.6 µM

**Q.** How did the IC50 turn out when `C(=NNc1ncnc2sccc12)c1ccccn1` was run?
**A.** 2.68 µM

**Q.** `OCCCN(CCO)c1ccc2ccc3cccnc3c2n1` was tested. Which outcome did it give?
**A.** inactive

**Q.** With `CC(C)N(C)S(=O)(=O)c1ccc(F)c(C(=O)Nc2nc(-c3ccccn3)cs2)c1` as the compound, how does the IC50 read?
**A.** 6.82 µM

**Q.** For `c1ccc(-c2n[nH]c3ccccc23)nc1`, which outcome is on record?
**A.** inactive

**Q.** For `COC(C)COc1ccc2ccc3cccnc3c2n1` (stereo not drawn), which outcome is on record?
**A.** inactive

**Q.** `O=C(Cc1ccc(S(=O)(=O)N2CCOCC2)s1)Nc1nc(-c2ccccn2)cs1` was tested. Which outcome did it give?
**A.** inactive

**Q.** `O=C(CN1C(=O)COc2ccc([N+](=O)[O-])cc21)Nc1nc(-c2ccccn2)cs1` was tested. Which IC50 did it give?
**A.** 12.4 µM

**Q.** For `CC1CC(Nc2nc(-c3ccccn3)cs2)C1` (stereo not drawn), which IC50 is on record?
**A.** 13.1 µM

**Q.** Which IC50 does the source give for `O=C(Nc1nc(-c2ccccn2)cs1)c1ccc(Cl)c(S(=O)(=O)NCC2CCCO2)c1` (stereo not drawn) here?
**A.** 10 µM

**Q.** How did the outcome turn out when `Cc1cccc2nc(CSc3cccc4cccnc34)cn12` was run?
**A.** inactive

**Q.** With `FC(F)(F)c1cnc(NN=Cc2ccccn2)c(Cl)c1` as the compound, how does the IC50 read?
**A.** 20.2 µM

**Q.** How did the outcome turn out when `CC(C)c1ncc(-c2cccc3cccnc23)n1C` was run?
**A.** inactive

**Q.** `C1=C(c2cccc3cccnc23)CCNC1` was tested. Which outcome did it give?
**A.** inactive

**Q.** Which IC50 does the source give for `OCCC(Nc1ccnc2c1ccc1cccnc12)C(F)F` (stereo not drawn) here?
**A.** 4.48 µM

**Q.** Which outcome does the source give for `O=[N+]([O-])c1cc(Cl)cc(C=Nc2ccc(Cl)c3ncccc23)c1O` here?
**A.** inactive

**Q.** For `CCOC(=O)c1c(C)[nH]c(C(=O)CSc2cccc3cccnc23)c1C`, which outcome is on record?
**A.** inactive

**Q.** For `CC1(C)CC(CSc2cccc3cccnc23)=NO1`, which outcome is on record?
**A.** inactive

**Q.** For `O=C(O)c1cc(C(=O)N2CCS(=O)(=O)CC2)ccn1`, which outcome is on record?
**A.** inactive

**Q.** With `O=C(CSc1cccc2cccnc12)Nc1cccc(N2CCCC2=O)c1` as the compound, how does the outcome read?
**A.** inactive

**Q.** For `CC1CC(Nc2nc(-c3ccccn3)nc3c2CCC3)CC(C)N1` (stereo not drawn), which IC50 is on record?
**A.** 12.1 µM

**Q.** Which outcome does the source give for `c1cnc2c(SCc3ccn4ncnc4c3)cccc2c1` here?
**A.** inactive

**Q.** With `Cc1cc(-c2ccccn2)n[nH]1` as the compound, how does the outcome read?
**A.** inactive

**Q.** For `CSCC(CCO)Nc1ccc2ccc3cccnc3c2n1` (stereo not drawn), which IC50 is on record?
**A.** 9.08 µM

**Q.** For `Clc1ccc(CN2CCOCCOCC2)c2ncccc12`, which outcome is on record?
**A.** inactive

**Q.** Which outcome does the source give for `O=c1[nH]ncc(NN=Cc2ccccn2)c1Cl` here?
**A.** inactive

**Q.** `C1=C[C@@H](CNc2nc(-c3ccccn3)cs2)[C@H]2CO[C@@H]1C2` was tested. Which IC50 did it give?
**A.** 11.5 µM

**Q.** Which outcome does the source give for `Oc1cccnc1SCc1ccc(F)c2cccnc12` here?
**A.** inactive

**Q.** For `CCc1nc(C)c(CSc2cccc3cccnc23)o1`, which outcome is on record?
**A.** inactive

**Q.** For `O=C(O)CSc1ccc([N+](=O)[O-])c2cccnc12`, which outcome is on record?
**A.** inactive

**Q.** `c1ccc(-c2cnc3n2CCC3)nc1` was tested. Which outcome did it give?
**A.** inactive

**Q.** How did the IC50 turn out when `Cc1nc(SCC(=O)Nc2n[nH]c(-c3ccccn3)n2)n[nH]1` was run?
**A.** 15.5 µM

**Q.** How did the IC50 turn out when `c1ccc(-c2ncc[nH]2)nc1` was run?
**A.** 15.7 µM

**Q.** How did the IC50 turn out when `Clc1cncnc1NN=Cc1ccccn1` was run?
**A.** 1.7 µM

**Q.** For `CN(C)CCN(C)c1ccc2ccc3cccnc3c2n1`, which outcome is on record?
**A.** inactive

**Q.** `c1cc(CSc2cccc3cccnc23)cc(CN2CCOCC2)c1` was tested. Which outcome did it give?
**A.** inactive

**Q.** How did the IC50 turn out when `O[C@@H]1COC[C@@H]1Nc1ccc2ccc3cccnc3c2n1` was run?
**A.** 4.26 µM

**Q.** For `c1cnc2c(Cn3ccnc3)cccc2c1`, which outcome is on record?
**A.** inactive

**Q.** `c1cnc2c(SCCn3cncn3)cccc2c1` was tested. Which outcome did it give?
**A.** inactive

**Q.** With `Cc1nn(C(C)C)cc1-c1ccc2cccnc2c1C` as the compound, how does the outcome read?
**A.** inactive

**Q.** With `Cc1cc(C)cc(OCCN(C)C(=O)CSc2cccc3cccnc23)c1` as the compound, how does the outcome read?
**A.** inactive

**Q.** With `Fc1cccc(CNc2nc(-c3ccccn3)nc3c2CCC3)c1F` as the compound, how does the IC50 read?
**A.** 6.11 µM

**Q.** With `OCCCCNc1ccc2ccc3cccnc3c2n1` as the compound, how does the IC50 read?
**A.** 4.33 µM

**Q.** For `c1cncc(CSCc2cccc3cccnc23)c1`, which outcome is on record?
**A.** inactive

**Q.** Which outcome does the source give for `c1ccc(-c2csc(NC3COC4(CCC4)C3)n2)nc1` (stereo not drawn) here?
**A.** inactive

**Q.** With `Cn1ccc(C23CCC(C2)C3C(=O)Nc2nc(-c3ccccn3)cs2)n1` (stereo not drawn) as the compound, how does the IC50 read?
**A.** 22.2 µM

**Q.** For `CSCC(CCO)Nc1ccnc2c1ccc1cccnc12` (stereo not drawn), which IC50 is on record?
**A.** 10.8 µM

**Q.** For `Cc1ccc(-n2nc(C)cc2NC(=O)CSc2cccc3cccnc23)cc1`, which outcome is on record?
**A.** inactive

**Q.** With `COc1cc([N+](=O)[O-])c(C(=O)Nc2nc(-c3ccccn3)cs2)cc1SC` as the compound, how does the IC50 read?
**A.** 7.02 µM

**Q.** How did the IC50 turn out when `O=[N+]([O-])c1ccc(SC2CCCCC2)c2ncccc12` was run?
**A.** inactive

**Q.** `c1cc2c(c(-c3cccc4cccnc34)c1)CNC2` was tested. Which outcome did it give?
**A.** inactive

**Q.** For `O=C(O)c1cc(-c2ccccc2)ccn1`, which IC50 is on record?
**A.** 21 µM

**Q.** `Cc1c(N)nc(-c2ccccn2)nc1NCC1CCC(C2CC2)O1` (stereo not drawn) was tested. Which IC50 did it give?
**A.** 5.44 µM

**Q.** `O=C1CC2(CCOC2)C(C(=O)Nc2nc(-c3ccccn3)cs2)CN1` (stereo not drawn) was tested. Which IC50 did it give?
**A.** 12.6 µM
